Laboratory results reported in patent US8969516B2, “Method of hydrolysis of peptide bond” (priority 2006, dated 2015).

Assay: MALDI-TOF screening of Ni^2+ dependent hydrolysis in a combinatorial peptide library
Assay type: physicochemical
Settings: Ni^2+ 2 mM, pH 8.2, 10 mM Tris, score=24/tm
Outline: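 The screen used 1 mM peptide mixtures in 10 mM Tris, pH 8.2, with 2 mM Ni2+ at two temperatures, 37 °C and 45 °C. Product appearance and substrate decline were monitored visually by MALDI-TOF over 8 h. Scores for X and Z were then summed by row and column to rank substitutions.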

[1] = CH3CO-Gly-Ala-Ser-X-His-Z-Lys-Phe-Leu-NH2 library, 37° C.
[2] = CH3CO-Gly-Ala-Ser-X-His-Z-Lys-Phe-Leu-NH2 library, 45° C.
[3] = CH3CO-Gly-Ala-Thr-X-His-Z-Lys-Phe-Leu-NH2 library, 37° C.
[4] = CH3CO-Gly-Ala-Thr-X-His-Z-Lys-Phe-Leu-NH2 library, 45° C.

Row | Substance | hydrolysis score from MALDI-TOF screening [1] | hydrolysis score from MALDI-TOF screening [2] | hydrolysis score from MALDI-TOF screening [3] | hydrolysis score from MALDI-TOF screening [4]
1 | Ac-GASAHTKFL-NH2 [SAHT] | 0 (a score of 0 if no trace of the product of hydrolysis was seen after 8 hours of incubation) | 0 (a score of 0 if no trace of the product of hydrolysis was seen after 8 hours of incubation) |  | 
2 | Ac-GATHHGKFL-NH2 [THHG] |  |  | 0 (a score of 0 if no trace of the product of hydrolysis was seen after 8 hours of incubation) | 4 (a score of 4 for detection at 6 hours)
3 | Ac-GASKHYKFL-NH2 [SKHY] | 4 (a score of 4 for detection at 6 hours) | 4 (a score of 4 for detection at 6 hours) |  | 
4 | Ac-GASHHRKFL-NH2 [SHHR] | 4 (a score of 4 for detection at 6 hours) | 6 (a score of 6 for detection at 4 hours) |  | 
5 | Ac-GATIHWKFL-NH2 [TIHW] |  |  | 3 (a score of 3 for detection at 8 hours) | 3 (a score of 3 for detection at 8 hours)
6 | Ac-GASWHFKFL-NH2 [SWHF] | 3 (a score of 3 for detection at 8 hours) | 4 (a score of 4 for detection at 6 hours) |  | 
7 | Ac-GASLHSKFL-NH2 [SLHS] | 0 (a score of 0 if no trace of the product of hydrolysis was seen after 8 hours of incubation) | 0 (a score of 0 if no trace of the product of hydrolysis was seen after 8 hours of incubation) |  | 
8 | Ac-GATHHWKFL-NH2 [THHW] |  |  | 12 (a score of 12, if it was seen to be partially hydrolysed at 2 hours) | 12 (a score of 12, if it was seen to be partially hydrolysed at 2 hours)
9 | Ac-GATYHKKFL-NH2 [TYHK] |  |  | 3 (a score of 3 for detection at 8 hours) | 4 (a score of 4 for detection at 6 hours)
10 | Ac-GATSHYKFL-NH2 [TSHY] |  |  | 0 (a score of 0 if no trace of the product of hydrolysis was seen after 8 hours of incubation) | 0 (a score of 0 if no trace of the product of hydrolysis was seen after 8 hours of incubation)
11 | Ac-GASGHLKFL-NH2 [SGHL] | 0 (a score of 0 if no trace of the product of hydrolysis was seen after 8 hours of incubation) | 3 (a score of 3 for detection at 8 hours) |  | 
12 | Ac-GASTHQKFL-NH2 [STHQ] | 0 (a score of 0 if no trace of the product of hydrolysis was seen after 8 hours of incubation) | 0 (a score of 0 if no trace of the product of hydrolysis was seen after 8 hours of incubation) |  | 
13 | Ac-GASSHTKFL-NH2 [SSHT] | 0 (a score of 0 if no trace of the product of hydrolysis was seen after 8 hours of incubation) | 0 (a score of 0 if no trace of the product of hydrolysis was seen after 8 hours of incubation) |  | 
14 | Ac-GASLHHKFL-NH2 [SLHH] | 0 (a score of 0 if no trace of the product of hydrolysis was seen after 8 hours of incubation) | 0 (a score of 0 if no trace of the product of hydrolysis was seen after 8 hours of incubation) |  | 
15 | Ac-GASVHWKFL-NH2 [SVHW] | 4 (a score of 4 for detection at 6 hours) | 4 (a score of 4 for detection at 6 hours) |  | 
16 | Ac-GASGHHKFL-NH2 [SGHH] | 0 (a score of 0 if no trace of the product of hydrolysis was seen after 8 hours of incubation) | 0 (a score of 0 if no trace of the product of hydrolysis was seen after 8 hours of incubation) |  | 
17 | Ac-GASWHQKFL-NH2 [SWHQ] | 0 (a score of 0 if no trace of the product of hydrolysis was seen after 8 hours of incubation) | 0 (a score of 0 if no trace of the product of hydrolysis was seen after 8 hours of incubation) |  | 
18 | Ac-GATYHYKFL-NH2 [TYHY] |  |  | 0 (a score of 0 if no trace of the product of hydrolysis was seen after 8 hours of incubation) | 0 (a score of 0 if no trace of the product of hydrolysis was seen after 8 hours of incubation)
19 | Ac-GASIHEKFL-NH2 [SIHE] | 0 (a score of 0 if no trace of the product of hydrolysis was seen after 8 hours of incubation) | 0 (a score of 0 if no trace of the product of hydrolysis was seen after 8 hours of incubation) |  | 
20 | Ac-GASHHLKFL-NH2 [SHHL] | 6 (a score of 6 for detection at 4 hours) | 6 (a score of 6 for detection at 4 hours) |  | 

Row | Substance | hydrolysis score from MALDI-TOF screening [1] | hydrolysis score from MALDI-TOF screening [2] | hydrolysis score from MALDI-TOF screening [3] | hydrolysis score from MALDI-TOF screening [4]
21 | Ac-GASLHTKFL-NH2 [SLHT] | 0 (a score of 0 if no trace of the product of hydrolysis was seen after 8 hours of incubation) | 0 (a score of 0 if no trace of the product of hydrolysis was seen after 8 hours of incubation) |  | 
22 | Ac-GATSHTKFL-NH2 [TSHT] |  |  | 0 (a score of 0 if no trace of the product of hydrolysis was seen after 8 hours of incubation) | 0 (a score of 0 if no trace of the product of hydrolysis was seen after 8 hours of incubation)
23 | Ac-GASMHAKFL-NH2 [SMHA] | 0 (a score of 0 if no trace of the product of hydrolysis was seen after 8 hours of incubation) | 3 (a score of 3 for detection at 8 hours) |  | 
24 | Ac-GATLHFKFL-NH2 [TLHF] |  |  | 0 (a score of 0 if no trace of the product of hydrolysis was seen after 8 hours of incubation) | 0 (a score of 0 if no trace of the product of hydrolysis was seen after 8 hours of incubation)
25 | Ac-GATYHVKFL-NH2 [TYHV] |  |  | 0 (a score of 0 if no trace of the product of hydrolysis was seen after 8 hours of incubation) | 0 (a score of 0 if no trace of the product of hydrolysis was seen after 8 hours of incubation)
26 | Ac-GASAHSKFL-NH2 [SAHS] | 0 (a score of 0 if no trace of the product of hydrolysis was seen after 8 hours of incubation) | 0 (a score of 0 if no trace of the product of hydrolysis was seen after 8 hours of incubation) |  | 
27 | Ac-GATKHAKFL-NH2 [TKHA] |  |  | 0 (a score of 0 if no trace of the product of hydrolysis was seen after 8 hours of incubation) | 3 (a score of 3 for detection at 8 hours)
28 | Ac-GASQHFKFL-NH2 [SQHF] | 3 (a score of 3 for detection at 8 hours) | 4 (a score of 4 for detection at 6 hours) |  | 
29 | Ac-GATFHHKFL-NH2 [TFHH] |  |  | 0 (a score of 0 if no trace of the product of hydrolysis was seen after 8 hours of incubation) | 0 (a score of 0 if no trace of the product of hydrolysis was seen after 8 hours of incubation)
30 | Ac-GASIHMKFL-NH2 [SIHM] | 0 (a score of 0 if no trace of the product of hydrolysis was seen after 8 hours of incubation) | 0 (a score of 0 if no trace of the product of hydrolysis was seen after 8 hours of incubation) |  | 
31 | Ac-GASMHSKFL-NH2 [SMHS] | 0 (a score of 0 if no trace of the product of hydrolysis was seen after 8 hours of incubation) | 3 (a score of 3 for detection at 8 hours) |  | 
32 | Ac-GATTHEKFL-NH2 [TTHE] |  |  | 0 (a score of 0 if no trace of the product of hydrolysis was seen after 8 hours of incubation) | 0 (a score of 0 if no trace of the product of hydrolysis was seen after 8 hours of incubation)
33 | Ac-GATSHQKFL-NH2 [TSHQ] |  |  | 0 (a score of 0 if no trace of the product of hydrolysis was seen after 8 hours of incubation) | 0 (a score of 0 if no trace of the product of hydrolysis was seen after 8 hours of incubation)
34 | Ac-GATPHYKFL-NH2 [TPHY] |  |  |  | 0 (a score of 0 if no trace of the product of hydrolysis was seen after 8 hours of incubation)
35 | Ac-GASNHSKFL-NH2 [SNHS] | 0 (a score of 0 if no trace of the product of hydrolysis was seen after 8 hours of incubation) | 0 (a score of 0 if no trace of the product of hydrolysis was seen after 8 hours of incubation) |  | 
36 | Ac-GATHHPKFL-NH2 [THHP] |  |  | 0 (a score of 0 if no trace of the product of hydrolysis was seen after 8 hours of incubation) | 0 (a score of 0 if no trace of the product of hydrolysis was seen after 8 hours of incubation)
37 | Ac-GATQHWKFL-NH2 [TQHW] |  |  | 3 (a score of 3 for detection at 8 hours) | 4 (a score of 4 for detection at 6 hours)
38 | Ac-GATAHSKFL-NH2 [TAHS] |  |  | 0 (a score of 0 if no trace of the product of hydrolysis was seen after 8 hours of incubation) | 0 (a score of 0 if no trace of the product of hydrolysis was seen after 8 hours of incubation)
39 | Ac-GASSHAKFL-NH2 [SSHA] | 0 (a score of 0 if no trace of the product of hydrolysis was seen after 8 hours of incubation) | 3 (a score of 3 for detection at 8 hours) |  | 
